Bridge positions count the residues as written; N and C are the ends. Square brackets hold non-standard residues; d marks the D form. Peptide text beside a SMILES is read from it. * marks the point of attachment. Biotin = O=C1N[C@H]2[C@H](CS[C@H]2CCCCC(=O)*)N1; pY = N[C@@H](Cc1ccc(OP(=O)(O)O)cc1)C(=O)O; AEEA = NCCOCCOCC(=O)O
Biological target: T1, gp120 HxBc2 (Human immunodeficiency virus type 1 group M subtype B, UniProt P04578)
T1 construct: incubated for 3 h with gp120 HxBc2 (ImmuneTech); purchased ImmuneTech
Experiment: Peptide binding assay (ELISA): gp120 binding to immobilized biotinylated peptide
Parameters: species or system HIV-1
Settings: same ELISA, gp120 up to 16.6 nM
Description: High-binding Corning Costar microtiter half-area plates were coated with Neutravidin (Thermo Scientific, Dreieich, Germany, 4.0 μ g /mL) in 0.1 M carbonate buffer pH 9.6, overnight at 4 ^∘C . After the blocking of unspecific binding with 1% BSA in 0.1 M phosphate buffer pH 7.2, for 1 h , the neutravidin-coated plate was incubated with 2 μ m biotinylated peptide for 2 h . Plates were then incubated for 3 h with gp120 HxBc2 (ImmuneTech, New York, NY, USA) at three-fold serial dilutions, starting at 16.6 nM. Bound gp120 was detected with sheep anti-gp120 (Aalto Bio Reagents, Dublin, Ireland) 0.1 μ g /mL) for 1 h , followed by rabbit anti-sheep-HRP conjugate (Jackson Immuno Research, Ely, UK, 0.1 μ g /mL) for 1 h . All peptides and proteins were diluted in 0.1 M phosphate buffer pH 7.2, containing 0.01% Tween. Plates were developed with OPD ( 1 m g /mL) in the presence of 0.03% H2O2 for approximately 10 min in the dark. After the reaction was stopped with 2 M H2SO4, absorbance was read at 492 n m . The absorbance of the blanks (samples without peptide) was subtracted. All data points present means of duplicates. Curves were fitted and EC50 values calculated using the program Origin 2021 (OriginLab Corporation, Northampton, MA, USA).

## CC[C@H](C)[C@@H]1NC(=O)[C@@H](NC(=O)CNC(=O)COCCOCCNC(=O)CCCC[C@@H]2SC[C@@H]3NC(=O)N[C@@H]32)CSSC[C@@H](C(=O)N[C@@H](Cc2ccc(O)cc2)C(=O)N[C@@H](Cc2ccc(OP(=O)(O)O)cc2)C(=O)N[C@@H](CC(=O)O)C(=O)N[C@@H](Cc2ccccc2)C(=O)N[C@@H](CC(N)=O)C(=O)N[C@@H](CC(=O)O)C(=O)NCC(N)=O)NC(=O)[C@H](C(C)C)NC(=O)[C@H](CC(=O)O)NC(=O)[C@H](CC(=O)O)NC(=O)[C@H](Cc2c[nH]cn2)NC(=O)[C@H](Cc2c[nH]c3ccccc23)NC1=O [LW40.2] ({Biotin-AEEA}-GCIWHDDVCY[pY]DFNDG-NH2; disulfide 2-9)
  binding of gp120 to the peptide (in words): no detectable binding at all
